Test results taken from PMC5218480 (PLoS ONE, 2017).

Tested on: MV-4-11 cells
Assay: Gene expression microarray analysis (Affymetrix PrimeView) and GSEA
Type: cell-based, human
Parameters: RFU PODN (11730768_x_at) / Fold change /veh PODN (11730768_x_at) / RFU LINC00158 (11744669_a_at) / Fold change /veh LINC00158 (11744669_a_at) / RFU DUSP10 (11751237_a_at) / Fold change /veh DUSP10 (11751237_a_at) / RFU ID3 (11757404_x_at) / Fold change /veh ID3 (11757404_x_at) / RFU PLEKHG5 (11737974_s_at) / Fold change /veh PLEKHG5 (11737974_s_at) / RFU LRRC4B (11730491_at) / Fold change /veh LRRC4B (11730491_at) / RFU GIMAP4 (11747438_a_at) / Fold change /veh GIMAP4 (11747438_a_at) / RFU KRT8 (11758183_x_at) / Fold change /veh KRT8 (11758183_x_at) / RFU CNN1 (11734310_a_at) / Fold change /veh CNN1 (11734310_a_at) / RFU VPS37D (11726825_at) / Fold change /veh VPS37D (11726825_at) / RFU C10orf10 (11716522_x_at) / Fold change /veh C10orf10 (11716522_x_at) / RFU KIR2DL2 /// KIR2DL4 /// KIR2DL5A /// KIR2DL5B /// KIR2DS1 /// KIR2DS2 /// KIR2DS3 /// KIR2DS4 /// KIR3DL3 /// KIR3DL3 /// KIR3DS1 (11738374_at) / Fold change /veh KIR2DL2 /// KIR2DL4 /// KIR2DL5A /// KIR2DL5B /// KIR2DS1 /// KIR2DS2 /// KIR2DS3 /// KIR2DS4 /// KIR3DL3 /// KIR3DL3 /// KIR3DS1 (11738374_at) / RFU C1QL1 (11718748_at) / Fold change /veh C1QL1 (11718748_at) / RFU TMPRSS4 (11747572_a_at) / Fold change /veh TMPRSS4 (11747572_a_at) / RFU HAMP (11756126_x_at) / Fold change /veh HAMP (11756126_x_at) / RFU RNFT2 (11725882_a_at) / Fold change /veh RNFT2 (11725882_a_at) / RFU NR4A2 (11747474_a_at) / Fold change /veh NR4A2 (11747474_a_at) / RFU ABCC12 (11746883_a_at) / Fold change /veh ABCC12 (11746883_a_at) / RFU TMEM136 (11760407_x_at) / Fold change /veh TMEM136 (11760407_x_at) / RFU CLDN22 /// WWC2 (11732394_at) / Fold change /veh CLDN22 /// WWC2 (11732394_at) / RFU HLA-DPB1 (11760878_x_at) / Fold change /veh HLA-DPB1 (11760878_x_at) / RFU SPINT1 (11716480_a_at) / Fold change /veh SPINT1 (11716480_a_at) / RFU GAP43 (11754022_s_at) / Fold change /veh GAP43 (11754022_s_at) / RFU A4GNT (11735810_at) / Fold change /veh A4GNT (11735810_at) / RFU PRB3 (11715151_x_at) / Fold change /veh PRB3 (11715151_x_at) / RFU TUBB4B (11761932_at) / Fold change /veh TUBB4B (11761932_at) / RFU CAPN14 (11732068_a_at) / Fold change /veh CAPN14 (11732068_a_at) / RFU TMCC2 (11721928_a_at) / Fold change /veh TMCC2 (11721928_a_at) / RFU IRGQ (11745062_a_at) / Fold change /veh IRGQ (11745062_a_at) / RFU FAM174B (11720279_a_at) / Fold change /veh FAM174B (11720279_a_at) / RFU TMPRSS4 (11748680_a_at) / Fold change /veh TMPRSS4 (11748680_a_at) / RFU FAM212B (11763350_a_at) / Fold change /veh FAM212B (11763350_a_at) / RFU PLEKHG5 (11743358_a_at) / Fold change /veh PLEKHG5 (11743358_a_at) / RFU ZSCAN30 (11745921_a_at) / Fold change /veh ZSCAN30 (11745921_a_at) / RFU CMKLR1 (11741424_a_at) / Fold change /veh CMKLR1 (11741424_a_at) / RFU LOC101060620 /// MAPK8IP1 (11723275_at) / Fold change /veh LOC101060620 /// MAPK8IP1 (11723275_at) / RFU SPTSSB (11747773_x_at) / Fold change /veh SPTSSB (11747773_x_at) / RFU PRSS12 (11739890_at) / Fold change /veh PRSS12 (11739890_at) / RFU BIN1 (11741810_x_at) / Fold change /veh BIN1 (11741810_x_at) / RFU WNT11 (11732464_a_at) / Fold change /veh WNT11 (11732464_a_at) / RFU C10orf10 (11716521_a_at) / Fold change /veh C10orf10 (11716521_a_at) / RFU C5orf56 (11738089_at) / Fold change /veh C5orf56 (11738089_at) / RFU CYB561 (11721691_x_at) / Fold change /veh CYB561 (11721691_x_at) / RFU ANKRD19P (11752326_a_at) / Fold change /veh ANKRD19P (11752326_a_at) / RFU OR2T12 /// OR2T33 /// OR2T8 (11738714_s_at) / Fold change /veh OR2T12 /// OR2T33 /// OR2T8 (11738714_s_at) / RFU VCAN (11748164_a_at) / Fold change /veh VCAN (11748164_a_at) / RFU JSRP1 (11732532_at) / Fold change /veh JSRP1 (11732532_at) / RFU KRTAP10-11 (11738290_x_at) / Fold change /veh KRTAP10-11 (11738290_x_at) / RFU MYO3A (11730013_a_at) / Fold change /veh MYO3A (11730013_a_at) / RFU EBF3 (11725865_a_at) / Fold change /veh EBF3 (11725865_a_at) / RFU CAMK2N1 (11719241_x_at) / Fold change /veh CAMK2N1 (11719241_x_at) / RFU C5orf56 (11738088_a_at) / Fold change /veh C5orf56 (11738088_a_at) / RFU OLFML3 (11715873_a_at) / Fold change /veh OLFML3 (11715873_a_at) / RFU LOC100653217 /// NTM (11731650_a_at) / Fold change /veh LOC100653217 /// NTM (11731650_a_at) / RFU MAPK11 (11762145_a_at) / Fold change /veh MAPK11 (11762145_a_at) / RFU FIZ1 (11724087_x_at) / Fold change /veh FIZ1 (11724087_x_at) / RFU OASL (11726364_x_at) / Fold change /veh OASL (11726364_x_at) / RFU SOX15 (11748057_x_at) / Fold change /veh SOX15 (11748057_x_at) / RFU CD79A (11719716_a_at) / Fold change /veh CD79A (11719716_a_at) / RFU HIST1H1D (11736915_at) / Fold change /veh HIST1H1D (11736915_at) / RFU CASKIN2 (11723855_a_at) / Fold change /veh CASKIN2 (11723855_a_at) / RFU LOC730098 (11760151_x_at) / Fold change /veh LOC730098 (11760151_x_at) / RFU OR4N2 (11742367_at) / Fold change /veh OR4N2 (11742367_at) / RFU PRRT2 (11749266_a_at) / Fold change /veh PRRT2 (11749266_a_at) / RFU SNX32 (11753110_a_at) / Fold change /veh SNX32 (11753110_a_at) / RFU CDHR5 (11726645_a_at) / Fold change /veh CDHR5 (11726645_a_at) / RFU RCAN1 (11760418_a_at) / Fold change /veh RCAN1 (11760418_a_at) / RFU FAM167A (11723789_a_at) / Fold change /veh FAM167A (11723789_a_at) / RFU FAM26E (11764081_at) / Fold change /veh FAM26E (11764081_at) / RFU ISYNA1 (11749810_s_at) / Fold change /veh ISYNA1 (11749810_s_at) / RFU ACY1 (11761880_at) / Fold change /veh ACY1 (11761880_at) / RFU 11764098_at / Fold change /veh 11764098_at / RFU SAMD14 (11745864_x_at) / Fold change /veh SAMD14 (11745864_x_at) / RFU NPB (11741838_a_at) / Fold change /veh NPB (11741838_a_at) / RFU TMPRSS6 (11731388_a_at) / Fold change /veh TMPRSS6 (11731388_a_at) / RFU KRTAP10-2 (11738614_at) / Fold change /veh KRTAP10-2 (11738614_at) / RFU ARHGAP8 /// PRR5-ARHGAP8 (11727945_x_at) / Fold change /veh ARHGAP8 /// PRR5-ARHGAP8 (11727945_x_at) / RFU KRTAP5-7 /// NADSYN1 (11734609_at) / Fold change /veh KRTAP5-7 /// NADSYN1 (11734609_at) / RFU RASL12 (11751679_a_at) / Fold change /veh RASL12 (11751679_a_at) / RFU CDKN2B (11736163_a_at) / Fold change /veh CDKN2B (11736163_a_at) / RFU PRF1 (11729649_at) / Fold change /veh PRF1 (11729649_at) / RFU, ZNF638 /// ZNF638-IT1 / Fold change vs veh, ZNF638 /// ZNF638-IT1 / RFU, PANK3 / Fold change vs veh, PANK3 / RFU, SH3YL1 / Fold change vs veh, SH3YL1 / RFU, ZEB2 / Fold change vs veh, ZEB2 / RFU, NRIP1 / Fold change vs veh, NRIP1 / RFU, PTTG1IP / Fold change vs veh, PTTG1IP / RFU, CAPN2 / Fold change vs veh, CAPN2 / RFU, MED14 / Fold change vs veh, MED14 / RFU, SNORA58 / Fold change vs veh, SNORA58 / RFU, C1orf63 / Fold change vs veh, C1orf63 / RFU, LRRFIP1 / Fold change vs veh, LRRFIP1 / RFU, NDUFAF7 / Fold change vs veh, NDUFAF7 / RFU, SLC12A2 / Fold change vs veh, SLC12A2 / RFU, IBTK / Fold change vs veh, IBTK / RFU, ESF1 / Fold change vs veh, ESF1 / Fold change vs veh, TMEM50B / RFU, TAOK1 / Fold change vs veh, TAOK1 / RFU, ACBD3 / Fold change vs veh, ACBD3 / RFU, TMA16 / Fold change vs veh, TMA16 / RFU, RWDD3 / Fold change vs veh, RWDD3 / RFU, BCAT1 / Fold change vs veh, BCAT1 / RFU, EDEM3 / Fold change vs veh, EDEM3 / RFU, TMEM33 / Fold change vs veh, TMEM33 / RFU, WDR75 / Fold change vs veh, WDR75 / RFU, AHCTF1 / Fold change vs veh, AHCTF1 / RFU, TFRC / Fold change vs veh, TFRC / RFU, ZDHHC17 / Fold change vs veh, ZDHHC17 / RFU, NOM1 / Fold change vs veh, NOM1 / RFU, ARL8B / Fold change vs veh, ARL8B / RFU, ZBTB11 / Fold change vs veh, ZBTB11 / RFU, TAMM41 / Fold change vs veh, TAMM41 / RFU, KIAA1704 /// LOC100996395 / Fold change vs veh, KIAA1704 /// LOC100996395 / RFU, ING1 / Fold change vs veh, ING1 / RFU, TRMT61B / Fold change vs veh, TRMT61B / RFU, FUBP3 / Fold change vs veh, FUBP3 / RFU, TP53 / Fold change vs veh, TP53 / RFU, TNKS2 / Fold change vs veh, TNKS2 / RFU, ZFP14 / Fold change vs veh, ZFP14 / RFU, ACTR2 / Fold change vs veh, ACTR2 / RFU, PPP3R1 / Fold change vs veh, PPP3R1 / RFU, PIK3R1 / Fold change vs veh, PIK3R1 / RFU, HNRNPA1 / Fold change vs veh, HNRNPA1 / RFU, RNF170 / Fold change vs veh, RNF170 / RFU, ZNF28 / Fold change vs veh, ZNF28 / RFU, RNGTT / Fold change vs veh, RNGTT / RFU, OGT / Fold change vs veh, OGT / RFU, BRD1 / Fold change vs veh, BRD1 / RFU, MARS / Fold change vs veh, MARS / RFU, ZNF655 / Fold change vs veh, ZNF655 / RFU, FAHD1 / Fold change vs veh, FAHD1 / RFU, BDP1 / Fold change vs veh, BDP1 / RFU, LRRCC1 / Fold change vs veh, LRRCC1 / RFU, ARID1A / Fold change vs veh, ARID1A / RFU, ZNF146 / Fold change vs veh, ZNF146 / RFU, ZNF330 / Fold change vs veh, ZNF330 / RFU, GPN3 / Fold change vs veh, GPN3 / RFU, C9orf123 / Fold change vs veh, C9orf123 / RFU, N4BP2L2 / Fold change vs veh, N4BP2L2 / RFU, ARFIP1 / Fold change vs veh, ARFIP1 / RFU, FAM179B / Fold change vs veh, FAM179B / RFU, BCL10 / Fold change vs veh, BCL10 / RFU, UHRF1BP1L / Fold change vs veh, UHRF1BP1L / RFU, BET1 / Fold change vs veh, BET1 / RFU, CNOT2 / Fold change vs veh, CNOT2 / RFU, ZNF268 / Fold change vs veh, ZNF268 / Fold change vs veh, ZNF507 / RFU, DGCR2 / Fold change vs veh, DGCR2 / RFU, WDSUB1 / Fold change vs veh, WDSUB1 / Fold change vs veh, HSP90B1 /// MIR3652 / RFU, ADSS / Fold change vs veh, ADSS / RFU, GK / Fold change vs veh, GK / RFU, ZNF148 / Fold change vs veh, ZNF148 / RFU, TAF9 / Fold change vs veh, TAF9 / RFU, SLC1A5 / Fold change vs veh, SLC1A5 / RFU, SLMO2 / Fold change vs veh, SLMO2 / RFU, ABCC4 / Fold change vs veh, ABCC4 / RFU, LOC101060439 /// RAP1B / Fold change vs veh, LOC101060439 /// RAP1B / RFU, RFX7 / Fold change vs veh, RFX7 / RFU, GTPBP10 / Fold change vs veh, GTPBP10 / RFU, CNEP1R1 / Fold change vs veh, CNEP1R1 / RFU, BIVM-ERCC5 /// ERCC5 / Fold change vs veh, BIVM-ERCC5 /// ERCC5 / RFU, ILF3 / Fold change vs veh, ILF3 / RFU 11762660_at / Fold change /veh 11762660_at / RFU VCAN (11757783_s_at) / Fold change /veh VCAN (11757783_s_at) / RFU DDX43 (11728927_at) / Fold change /veh DDX43 (11728927_at) / RFU KRT8 (11758188_x_at) / Fold change /veh KRT8 (11758188_x_at) / RFU NKD1 (11759106_at) / Fold change /veh NKD1 (11759106_at) / RFU SRD5A1 (11742802_a_at) / Fold change /veh SRD5A1 (11742802_a_at) / RFU TPSAB1 /// TPSB2 (11721975_s_at) / Fold change /veh TPSAB1 /// TPSB2 (11721975_s_at) / RFU GSTM3 (11746129_a_at) / Fold change /veh GSTM3 (11746129_a_at) / RFU IL23R (11737362_x_at) / Fold change /veh IL23R (11737362_x_at) / RFU TMEM51 (11727254_a_at) / Fold change /veh TMEM51 (11727254_a_at) / RFU PIWIL2 (11732686_x_at) / Fold change /veh PIWIL2 (11732686_x_at) / RFU ORM1 (11744905_x_at) / Fold change /veh ORM1 (11744905_x_at) / RFU CCDC152 (11743942_at) / Fold change /veh CCDC152 (11743942_at) / RFU ECM1 (11717891_a_at) / Fold change /veh ECM1 (11717891_a_at) / RFU IL23R (11748794_a_at) / Fold change /veh IL23R (11748794_a_at) / RFU TNFAIP8L3 (11732012_x_at) / Fold change /veh TNFAIP8L3 (11732012_x_at) / RFU MBOAT4 (11741988_at) / Fold change /veh MBOAT4 (11741988_at) / RFU 11764193_at / Fold change /veh 11764193_at / RFU TMEM53 (11763286_at) / Fold change /veh TMEM53 (11763286_at) / RFU MAGEB2 (11727129_at) / Fold change /veh MAGEB2 (11727129_at) / RFU TMEM200A (11744735_a_at) / Fold change /veh TMEM200A (11744735_a_at) / RFU CCDC152 (11751479_a_at) / Fold change /veh CCDC152 (11751479_a_at) / RFU FAM211A (11726209_a_at) / Fold change /veh FAM211A (11726209_a_at) / RFU RGS16 (11746705_a_at) / Fold change /veh RGS16 (11746705_a_at) / RFU VCAN (11755009_s_at) / Fold change /veh VCAN (11755009_s_at) / RFU RHOB (11743442_s_at) / Fold change /veh RHOB (11743442_s_at) / RFU RGS16 (11720943_a_at) / Fold change /veh RGS16 (11720943_a_at) / RFU RGS16 (11720944_at) / Fold change /veh RGS16 (11720944_at) / RFU, VPS4B / Fold change vs veh, VPS4B / RFU, CREB1 / Fold change vs veh, CREB1 / RFU, DNAJC13 / Fold change vs veh, DNAJC13 / RFU, GNAQ / Fold change vs veh, GNAQ / RFU, CDK5R1 / Fold change vs veh, CDK5R1 / RFU, ZRANB3 / Fold change vs veh, ZRANB3 / RFU, CUL4A / Fold change vs veh, CUL4A / RFU, CCNY / Fold change vs veh, CCNY / RFU, UFL1 / Fold change vs veh, UFL1 / RFU, COG3 / Fold change vs veh, COG3 / RFU, DIAPH2 / Fold change vs veh, DIAPH2 / RFU, SKA2 / Fold change vs veh, SKA2 / RFU, AFF3 / Fold change vs veh, AFF3 / RFU, LMF1 / Fold change vs veh, LMF1 / RFU, IPO11 / Fold change vs veh, IPO11 / RFU, DFFB / Fold change vs veh, DFFB / RFU, FOXP1 / Fold change vs veh, FOXP1 / RFU, CARD8 / Fold change vs veh, CARD8 / RFU, STRN3 / Fold change vs veh, STRN3 / RFU, ADK / Fold change vs veh, ADK / RFU, RASSF2 / Fold change vs veh, RASSF2 / RFU, WIPF1 / Fold change vs veh, WIPF1 / RFU, LARP1B / Fold change vs veh, LARP1B / RFU, RASA1 / Fold change vs veh, RASA1 / RFU, RB1 / Fold change vs veh, RB1 / RFU, PPFIA1 / Fold change vs veh, PPFIA1 / RFU, MAT2A / Fold change vs veh, MAT2A / RFU, CCT5 / Fold change vs veh, CCT5 / RFU, WDR92 / Fold change vs veh, WDR92 / RFU, CUX1 / Fold change vs veh, CUX1 / RFU, TTC7A / Fold change vs veh, TTC7A / RFU, TMEM135 / Fold change vs veh, TMEM135 / RFU, DEPTOR / Fold change vs veh, DEPTOR / RFU, CPM / Fold change vs veh, CPM / RFU, DNAJB6 / Fold change vs veh, DNAJB6 / RFU, CACNA2D3 / Fold change vs veh, CACNA2D3 / RFU, DTX4 / Fold change vs veh, DTX4 / RFU, TFCP2 / Fold change vs veh, TFCP2 / RFU, GMCL1 /// GMCL1P1 / Fold change vs veh, GMCL1 /// GMCL1P1 / RFU, AEBP2 / Fold change vs veh, AEBP2 / RFU, SNHG1 /// SNORD22 /// SNORD25 /// SNORD26 /// SNORD27 /// SNORD28 /// SNORD29 /// SNORD31 / Fold change vs veh, SNHG1 /// SNORD22 /// SNORD25 /// SNORD26 /// SNORD27 /// SNORD28 /// SNORD29 /// SNORD31 / Fold change (Aza/veh), C12orf56 (ProbeSet 11735607_a_at) / Fold change (ACY-1035/veh), C12orf56 (ProbeSet 11735607_a_at) / Fold change (Aza/veh), FGFR1OP (ProbeSet 11751329_s_at) / Fold change (ACY-1035/veh), FGFR1OP (ProbeSet 11751329_s_at) / Fold change (Aza/veh), VPS36 (ProbeSet 11739960_a_at) / Fold change (ACY-1035/veh), VPS36 (ProbeSet 11739960_a_at) / RFU SYPL1 (11715823_x_at) / Fold change /veh SYPL1 (11715823_x_at) / RFU IGFBP7 (11715501_s_at) / Fold change /veh IGFBP7 (11715501_s_at) / RFU REEP3 (11722064_at) / Fold change /veh REEP3 (11722064_at) / RFU IGLL1 (11728026_x_at) / Fold change /veh IGLL1 (11728026_x_at): dose or concentration left out as unconfirmed
Conditions: MV-4-11 cells, 48 hours

For `Nc1ncn([C@@H]2O[C@H](CO)[C@@H](O)[C@H]2O)c(=O)n1` [azacitidine], which “RFU IL23R (11748794_a_at)” value is on record?
The value was 8.76 RFU.
